Columns and labels:
[1] = target: EGFR L858R/T790M (Homo sapiens, UniProt P00533, L858R/T790M); test: HTRF-based EGFR biochemical assay, L858R/T790M enzyme; settings: L858R/T790M 0.02 nM enzyme, 100 μM ATP, 30 min preincubation, read-out: LRTM enzyme IC50
Experimental: (§1) EGFR biochemical activity measurements were carried out using the homogeneous time-resolved fluorescence (HTRF) assay (Cisbio). Inhibitors and DMSO normalizations were first dispensed to empty black low-volume 384-well plates (Corning) with D300 digital liquid dispenser (HP). All reactions were carried out at room temperature and solutions were added to plates with a Multidrop Combi Reagent Dispenser (ThermoFisher). The reaction mixture (10 μL final volume) contained 1 μM tyrosine kinase peptide-biotin substrate and mutant EGFR in a reaction buffer (50 mM HEPES pH 7.0, 5 mM MgCl2,1 mM MnCl2, 0.01% BSA, 2 mM TCEP, 0.1 mM NaVO4). Enzyme concentrations were adjusted to accommodate varying kinase activities (L858R 0.1 nM, L858R/T790M 0.02 nM). Enzyme reaction solution (2× concentrations, 5 μL) was added to 384-well plates containing compounds and incubated for 30 mins. Enzyme reactions were initiated with the addition of 5 μL of ATP to a final concentration of 100 μM and reacted for 20 mins. Reactions were quenched with the addition of 10 μL of phospho-tyrosine antibody-Europium(III) cryptate (1-to-180 volume ratio) and Streptavidin-XL665 (46.7 nM) in EDTA-containing detection buffer, then incubated at room temperature for 1 hour, and read with a PHERAstar plate reader (excitation=337 nm, emission=620 nm and 665 nm). IC50 values were determined by inhibition curves (11-point curves from 1.0 μM to 0.130 nM or 23-point curves from 1.0 μM to […]) in triplicate with non-linear least squares fit in GraphPad Prism 7.0d. The data obtained are shown in Table 2 below where “−” is indicative of an IC50 value of >5 nM “+” is indicative of an IC50 value of <5 nM, “++” is indicative of an IC50 value of <1 nM, and “+++” is indicative of an IC50 value of <0.5 nM.

[2] = target: EGFR L858R (Homo sapiens, UniProt P00533, L858R); test: HTRF-based EGFR biochemical assay, L858R enzyme; settings: L858R 0.1 nM enzyme, 100 μM ATP, 30 min preincubation, read-out: LR enzyme IC50
EGFR L858R, sequence (P00533 25-1210 L858R): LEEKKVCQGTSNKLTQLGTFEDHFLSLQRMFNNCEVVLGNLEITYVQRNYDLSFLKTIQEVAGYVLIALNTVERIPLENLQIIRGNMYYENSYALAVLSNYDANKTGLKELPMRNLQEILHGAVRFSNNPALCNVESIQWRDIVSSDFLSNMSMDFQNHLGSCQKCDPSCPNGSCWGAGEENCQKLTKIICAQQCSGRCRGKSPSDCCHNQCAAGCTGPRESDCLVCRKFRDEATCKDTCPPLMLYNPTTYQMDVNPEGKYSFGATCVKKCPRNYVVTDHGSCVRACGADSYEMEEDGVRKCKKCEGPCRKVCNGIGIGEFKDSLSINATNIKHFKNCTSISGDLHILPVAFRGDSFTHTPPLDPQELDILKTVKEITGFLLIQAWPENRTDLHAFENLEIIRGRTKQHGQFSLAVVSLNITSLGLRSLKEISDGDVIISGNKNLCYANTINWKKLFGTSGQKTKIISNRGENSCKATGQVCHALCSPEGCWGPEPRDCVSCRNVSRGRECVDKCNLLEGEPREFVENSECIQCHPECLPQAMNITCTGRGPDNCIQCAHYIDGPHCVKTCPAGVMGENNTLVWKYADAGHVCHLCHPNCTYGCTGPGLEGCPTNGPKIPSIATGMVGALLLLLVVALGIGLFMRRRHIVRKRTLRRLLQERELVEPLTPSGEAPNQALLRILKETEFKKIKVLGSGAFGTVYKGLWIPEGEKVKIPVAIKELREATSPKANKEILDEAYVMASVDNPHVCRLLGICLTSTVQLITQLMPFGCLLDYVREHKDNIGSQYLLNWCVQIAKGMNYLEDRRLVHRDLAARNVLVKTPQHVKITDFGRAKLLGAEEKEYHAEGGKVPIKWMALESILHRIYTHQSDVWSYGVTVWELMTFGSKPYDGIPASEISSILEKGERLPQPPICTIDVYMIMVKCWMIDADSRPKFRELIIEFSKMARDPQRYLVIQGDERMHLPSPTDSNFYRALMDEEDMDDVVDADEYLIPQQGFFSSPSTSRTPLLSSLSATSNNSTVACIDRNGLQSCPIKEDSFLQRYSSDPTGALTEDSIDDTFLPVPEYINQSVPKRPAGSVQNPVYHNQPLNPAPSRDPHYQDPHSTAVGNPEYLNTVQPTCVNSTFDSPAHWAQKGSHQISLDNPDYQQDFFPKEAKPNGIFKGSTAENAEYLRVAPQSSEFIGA
Experimental: as §1

[3] = target: EGFR mutant L858R Ba/F3 cells (Homo sapiens, UniProt P00533, L858R, cells depend on it); test: Ba/F3 cell proliferation (Cell Titer Glo), EGFR L858R; format: cell-based, murine; settings: 72 hours, read-out: BaF3 cell L858R IC50
EGFR mutant L858R Ba/F3 cells, sequence (P00533 whole entry L858R): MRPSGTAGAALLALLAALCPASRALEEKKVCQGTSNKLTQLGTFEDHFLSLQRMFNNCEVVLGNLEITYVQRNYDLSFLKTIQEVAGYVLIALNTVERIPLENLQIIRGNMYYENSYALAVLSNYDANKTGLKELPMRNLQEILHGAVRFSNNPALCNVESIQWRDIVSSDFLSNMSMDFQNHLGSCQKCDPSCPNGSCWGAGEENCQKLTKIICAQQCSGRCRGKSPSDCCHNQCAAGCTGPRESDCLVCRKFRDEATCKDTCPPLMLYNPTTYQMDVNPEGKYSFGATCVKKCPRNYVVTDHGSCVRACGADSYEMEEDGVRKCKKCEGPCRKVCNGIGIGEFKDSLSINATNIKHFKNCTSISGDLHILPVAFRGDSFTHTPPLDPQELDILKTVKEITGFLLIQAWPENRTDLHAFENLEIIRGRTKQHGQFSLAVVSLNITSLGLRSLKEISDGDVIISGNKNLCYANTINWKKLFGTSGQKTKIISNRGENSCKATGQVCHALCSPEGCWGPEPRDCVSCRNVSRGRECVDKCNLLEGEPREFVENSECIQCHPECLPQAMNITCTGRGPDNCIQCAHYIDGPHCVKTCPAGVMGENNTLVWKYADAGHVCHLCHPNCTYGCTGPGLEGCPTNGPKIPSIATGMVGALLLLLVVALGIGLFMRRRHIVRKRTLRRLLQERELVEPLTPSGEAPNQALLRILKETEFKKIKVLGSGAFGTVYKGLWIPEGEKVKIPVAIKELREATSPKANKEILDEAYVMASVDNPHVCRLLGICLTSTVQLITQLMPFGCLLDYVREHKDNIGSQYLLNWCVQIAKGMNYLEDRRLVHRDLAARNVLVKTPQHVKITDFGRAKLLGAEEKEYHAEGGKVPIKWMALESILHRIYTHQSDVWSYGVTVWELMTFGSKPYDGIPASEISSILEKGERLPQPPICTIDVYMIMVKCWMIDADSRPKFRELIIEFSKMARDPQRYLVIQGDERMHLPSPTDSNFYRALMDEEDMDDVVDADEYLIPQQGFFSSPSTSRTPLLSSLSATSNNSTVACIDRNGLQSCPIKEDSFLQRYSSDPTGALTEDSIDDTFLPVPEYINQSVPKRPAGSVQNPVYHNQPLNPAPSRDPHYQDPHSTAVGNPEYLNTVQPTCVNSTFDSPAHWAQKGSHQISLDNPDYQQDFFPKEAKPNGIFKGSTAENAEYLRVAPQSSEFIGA
From the text: (§2) The EGFR mutant L858R and L858R/T790M Ba/F3 cells have been previously described (Zhou, W., et al. Nature 462, 2009, 1070-1074). All cell lines were maintained in RPMI 1640 (Cellgro; Mediatech Inc., Herndon, CA) supplemented with 10% FBS, 100 units/mL penicillin, 100 units/mL streptomycin. The EGFR 1941R mutation was introduced via site directed mutagenesis using the Quick Change Site-Directed Mutagenesis kit (Stratagene; La Jolla, CA) according to the manufacturer's instructions. All constructs were confirmed by DNA sequencing. The constructs were shuttled into the retroviral vector JP1540 using the Cre-recombination system (Agilent Technologies, Santa Clara, CA). Ba/F3 cells were then infected with retrovirus per standard protocols, as described previously (Zhou, et al, Nature 2009). Stable clones were obtained by selection in puromycin (2 μg/ml).
(§3) Growth and inhibition of growth was assessed by the Cell Titer Glo assay (Promega, Madison, WI) and was performed according to the manufacturer's instructions. The Cell Titer Glo assay is a luminescence-based method used to determine the number of viable cells based on quantitation of the ATP present, which is directly proportional to the amount of metabolically active cells present. Ba/F3 cells of different EGFR genotypes were exposed to the compounds disclosed herein for 72 hours and the number of cells used per experiment was determined empirically as has been previously established (Zhou, et al., Nature 2009). All experimental points were set up in triplicates in 384-well plates and all experiments were repeated at least three times. […] The curves were fitted using a non-linear regression model with a sigmoidal dose response.

[4] = target: EGFR mutant L858R/T790M Ba/F3 cells (Homo sapiens, UniProt P00533, T790M/L858R, cells depend on it); test: Ba/F3 cell proliferation (Cell Titer Glo), EGFR L858R/T790M; format: cell-based, murine; settings: 72 hours, read-out: BaF3 cell L858R/T790M
EGFR mutant L858R/T790M Ba/F3 cells, sequence (P00533 whole entry T790M/L858R): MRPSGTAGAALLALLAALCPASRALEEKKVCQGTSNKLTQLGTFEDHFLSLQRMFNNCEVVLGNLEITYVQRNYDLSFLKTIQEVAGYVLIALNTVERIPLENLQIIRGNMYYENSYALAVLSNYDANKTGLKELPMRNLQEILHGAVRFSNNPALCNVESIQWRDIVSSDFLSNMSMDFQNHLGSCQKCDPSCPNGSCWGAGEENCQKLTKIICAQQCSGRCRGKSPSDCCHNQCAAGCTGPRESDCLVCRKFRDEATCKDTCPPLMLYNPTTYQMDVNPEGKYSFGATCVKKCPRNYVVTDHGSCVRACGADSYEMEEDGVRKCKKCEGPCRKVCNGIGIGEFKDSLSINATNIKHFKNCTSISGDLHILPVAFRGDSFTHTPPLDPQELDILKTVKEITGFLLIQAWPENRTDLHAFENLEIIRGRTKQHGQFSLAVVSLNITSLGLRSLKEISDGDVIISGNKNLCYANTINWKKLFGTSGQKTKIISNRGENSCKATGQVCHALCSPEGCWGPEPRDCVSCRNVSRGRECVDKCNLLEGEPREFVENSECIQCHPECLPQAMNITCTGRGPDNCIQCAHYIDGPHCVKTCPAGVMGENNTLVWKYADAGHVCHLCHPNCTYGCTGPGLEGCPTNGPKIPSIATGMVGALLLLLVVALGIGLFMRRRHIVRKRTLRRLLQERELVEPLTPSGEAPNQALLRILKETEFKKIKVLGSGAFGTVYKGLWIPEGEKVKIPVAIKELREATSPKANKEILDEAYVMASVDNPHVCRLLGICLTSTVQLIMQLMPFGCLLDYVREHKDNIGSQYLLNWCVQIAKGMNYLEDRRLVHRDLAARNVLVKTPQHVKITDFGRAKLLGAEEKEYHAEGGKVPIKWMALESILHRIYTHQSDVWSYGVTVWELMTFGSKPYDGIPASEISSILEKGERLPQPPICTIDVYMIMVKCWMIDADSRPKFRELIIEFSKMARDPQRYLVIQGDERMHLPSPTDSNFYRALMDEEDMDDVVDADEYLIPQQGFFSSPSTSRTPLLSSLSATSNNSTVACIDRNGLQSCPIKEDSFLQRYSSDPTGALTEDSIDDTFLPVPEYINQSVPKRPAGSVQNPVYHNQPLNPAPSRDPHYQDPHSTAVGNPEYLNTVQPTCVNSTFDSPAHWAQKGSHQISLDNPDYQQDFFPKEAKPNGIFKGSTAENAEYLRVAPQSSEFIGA
From the text: as §2, §3

EGFR L858R/T790M, sequence (P00533 25-1210 T790M/L858R): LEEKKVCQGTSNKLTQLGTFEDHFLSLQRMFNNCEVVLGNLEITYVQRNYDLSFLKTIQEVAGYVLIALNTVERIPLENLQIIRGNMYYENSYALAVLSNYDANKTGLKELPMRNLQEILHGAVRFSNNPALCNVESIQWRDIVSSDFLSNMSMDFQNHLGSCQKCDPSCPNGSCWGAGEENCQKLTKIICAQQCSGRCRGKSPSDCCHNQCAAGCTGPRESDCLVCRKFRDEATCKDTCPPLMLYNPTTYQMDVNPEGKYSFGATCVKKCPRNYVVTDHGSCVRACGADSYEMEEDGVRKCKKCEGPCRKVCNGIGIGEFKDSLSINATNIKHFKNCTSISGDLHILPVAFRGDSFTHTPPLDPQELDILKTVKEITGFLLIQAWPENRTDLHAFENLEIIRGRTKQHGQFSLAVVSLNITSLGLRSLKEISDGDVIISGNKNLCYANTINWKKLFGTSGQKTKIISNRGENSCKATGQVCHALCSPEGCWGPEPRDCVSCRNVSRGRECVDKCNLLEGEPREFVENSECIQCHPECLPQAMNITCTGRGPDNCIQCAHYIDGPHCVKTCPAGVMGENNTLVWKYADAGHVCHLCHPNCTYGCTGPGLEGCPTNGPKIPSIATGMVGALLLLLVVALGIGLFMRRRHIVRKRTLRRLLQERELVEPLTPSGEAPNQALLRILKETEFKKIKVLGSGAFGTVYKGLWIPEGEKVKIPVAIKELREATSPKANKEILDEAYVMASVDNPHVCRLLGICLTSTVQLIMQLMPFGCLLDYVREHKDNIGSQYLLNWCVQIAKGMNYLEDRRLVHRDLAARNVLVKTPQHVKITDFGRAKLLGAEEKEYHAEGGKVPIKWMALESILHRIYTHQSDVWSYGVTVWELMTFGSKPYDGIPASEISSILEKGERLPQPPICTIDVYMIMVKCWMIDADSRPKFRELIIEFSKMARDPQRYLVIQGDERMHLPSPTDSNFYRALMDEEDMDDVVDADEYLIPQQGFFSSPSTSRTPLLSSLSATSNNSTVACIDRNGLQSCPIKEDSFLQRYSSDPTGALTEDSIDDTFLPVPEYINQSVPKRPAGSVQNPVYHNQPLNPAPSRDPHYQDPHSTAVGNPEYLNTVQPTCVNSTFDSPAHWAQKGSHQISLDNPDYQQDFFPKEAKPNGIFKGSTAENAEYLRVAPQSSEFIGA

Row | SMILES | IC50 [1] [nM] | IC50 [2] [nM] | GI50 [3] [nM] | GI50 [4] [nM]
1 | CN1CCC(c2ccc(-c3ccc4c(c3)C(=O)N(C(C(=O)Nc3nccs3)c3ncn5c3CCC5)CO4)cc2)CC1 (centres unmarked) [Compound 008, 2-(6,7-Dihydro-5H-pyrrolo[1,2-c]imidazol-1-yl)-2-(6-(4-(1-methylpiperidin-4-yl)phenyl)-4-oxo-2H-benzo[e][1,3]oxazin-3(4H)-yl)-N-(thiazol-2-yl)acetamide] | < 0.5 | < 5 | < 500 | < 100
2 | CN1CCC(c2ccc(-c3cc(F)c4c(=O)n(C(C(=O)Nc5nccs5)c5ncn6c5C[C@@H](F)C6)ccc4c3)cc2)CC1 (stereo partly drawn) [Compound 002, 2-((R)-6-Fluoro-6,7-dihydro-5H-pyrrolo[1,2-c]imidazol-1-yl)-2-(8-fluoro-6-(4-(1-methylpiperidin-4-yl)phenyl)-1-oxoisoquinolin-2(1H)-yl)-N-(thiazol-2-yl)acetamide] | < 1 | < 5 | < 500 | < 500
3 | CN1CCN(c2ccc(-c3ccc4ncn(C(C(=O)Nc5nccs5)c5ncn6c5CCC6)c(=O)c4c3)cc2)CC1 (centres unmarked) [Compound 007, 2-(6,7-Dihydro-5H-pyrrolo[1,2-c]imidazol-1-yl)-2-(6-(4-(4-methylpiperazin-1-yl)phenyl)-4-oxoquinazolin-3(4H)-yl)-N-(thiazol-2-yl)acetamide] | < 5 | > 5 | < 5000 | < 5000
4 | CN1CCC(c2ccc(-c3ccc4ncn(C(C(=O)Nc5nccs5)c5ncn6c5CCC6)c(=O)c4c3F)cc2)CC1 (centres unmarked) [Compound 006, 2-(6,7-Dihydro-5H-pyrrolo[1,2-c]imidazol-1-yl)-2-(5-fluoro-6-(4-(1-methylpiperidin-4-yl)phenyl)-4-oxoquinazolin-3(4H)-yl)-N-(thiazol-2-yl)acetamide] | < 0.5 | < 5 | < 500 | < 100

The remaining lines, values ahead:

Row | IC50 [1] [nM] | IC50 [2] [nM] | GI50 [3] [nM] | GI50 [4] [nM] | SMILES
5 | < 0.5 | < 5 | < 500 | < 100 | CN1CCC(c2ccc(-c3cc4ccn(C(C(=O)Nc5nccs5)c5ncn6c5CCC6)c(=O)c4s3)cc2)CC1 (centres unmarked) [Compound 003, 2-(6,7-Dihydro-5H-pyrrolo[1,2-c]imidazol-1-yl)-2-(2-(4-(1-methylpiperidin-4-yl)phenyl)-7-oxothieno[2,3-c]pyridin-6(7H)-yl)-N-(thiazol-2-yl)acetamide]
6 | < 0.5 | < 5 | < 5000 | < 500 | CN1CCC(c2ccc(-c3cc4ccn(C(C(=O)Nc5nccs5)c5ncn6c5C[C@@H](F)C6)c(=O)c4s3)cc2)CC1 (stereo partly drawn) [Compound 004, 2-((R)-6-Fluoro-6,7-dihydro-5H-pyrrolo[1,2-c]imidazol-1-yl)-2-(2-(4-(1-methylpiperidin-4-yl)phenyl)-7-oxothieno[2,3-c]pyridin-6(7H)-yl)-N-(thiazol-2-yl)acetamide]
7 | < 0.5 | < 1 | < 500 | < 100 | CN1CCC(c2ccc(-c3ccc4ncn(C(C(=O)Nc5nccs5)c5ncn6c5CCC6)c(=O)c4c3)cc2)CC1 (centres unmarked) [Compound 005, 2-(6,7-Dihydro-5H-pyrrolo[1,2-c]imidazol-1-yl)-2-(6-(4-(1-methylpiperidin-4-yl)phenyl)-4-oxoquinazolin-3(4H)-yl)-N-(thiazol-2-yl)acetamide]
8 | < 0.5 | < 5 | < 500 | < 100 | CN1CCC(c2ccc(-c3cc(F)c4c(=O)n(C(C(=O)Nc5nccs5)c5ncn6c5CCC6)ccc4c3)cc2)CC1 (centres unmarked) [Compound 001, 2-(6,7-Dihydro-5H-pyrrolo[1,2-c]imidazol-1-yl)-2-(8-fluoro-6-(4-(1-methylpiperidin-4-yl)phenyl)-1-oxoisoquinolin-2(1H)-yl)-N-(thiazol-2-yl)acetamide]

— patent publication US20260216195A1, “MUTANT-SELECTIVE EGFR INHIBITORS” (Dana-Farber Cancer Institute, Inc., priority 2023, published 2026)
